The NIST ThermoML archive (doi:10.1016/j.tca.2018.01.023)
± gives the expanded uncertainty stated by the source.

Assay: molar heat capacity at constant pressure
Conditions: 101.33 kPa, Crystal, Small sample (50 mg) DSC

[Ca+2].[O]=[Mo](=[O])([O-])[O-] [calcium molybdate(VI)]
Conditions | molar heat capacity at constant pressure [J/K/mol]
445.4 K | 131.8 ± 5.6
445.6 K | 132.2 ± 5.6
446.4 K | 132 ± 5.6
446.6 K | 132.3 ± 5.6
447.4 K | 132.1 ± 5.6
447.6 K | 132.4 ± 5.6
448.4 K | 132.2 ± 5.6
448.6 K | 132.5 ± 5.6
449.4 K | 132.3 ± 5.6
449.6 K | 132.6 ± 5.6
450 K | 132.4 ± 5.6
450.4 K | 132.4 ± 5.6
450.6 K | 132.6 ± 5.6
451.4 K | 132.5 ± 5.6
451.6 K | 132.6 ± 5.6
452.4 K | 132.5 ± 5.6
452.6 K | 132.7 ± 5.6
453.4 K | 132.6 ± 5.6
453.6 K | 132.7 ± 5.6
454.4 K | 132.7 ± 5.6
454.6 K | 132.7 ± 5.6
455.4 K | 132.7 ± 5.6
455.6 K | 132.7 ± 5.6
456.4 K | 132.8 ± 5.6
456.6 K | 132.7 ± 5.6
457.4 K | 132.9 ± 5.6
457.6 K | 132.8 ± 5.6
458.4 K | 133 ± 5.6
458.7 K | 132.9 ± 5.6
459.4 K | 133 ± 5.6
459.7 K | 133.1 ± 5.6
460 K | 133.2 ± 5.7
460.4 K | 133.1 ± 5.6
460.7 K | 133.2 ± 5.7
461.4 K | 133.2 ± 5.7
461.7 K | 133.4 ± 5.7
462.4 K | 133.3 ± 5.7
462.7 K | 133.5 ± 5.7
463.4 K | 133.4 ± 5.7
463.7 K | 133.6 ± 5.7
464.4 K | 133.5 ± 5.7
464.7 K | 133.7 ± 5.7
465.4 K | 133.6 ± 5.7
465.7 K | 133.7 ± 5.7
466.4 K | 133.6 ± 5.7
466.7 K | 133.8 ± 5.7
467.4 K | 133.7 ± 5.7
467.7 K | 133.8 ± 5.7
468.4 K | 133.8 ± 5.7
468.7 K | 133.9 ± 5.7
469.4 K | 133.9 ± 5.7
469.7 K | 133.9 ± 5.7
470 K | 133.9 ± 5.7
470.4 K | 134 ± 5.7
470.7 K | 133.9 ± 5.7
471.4 K | 134 ± 5.7
471.7 K | 134 ± 5.7
472.4 K | 134 ± 5.7
472.7 K | 134.1 ± 5.7
473.4 K | 134.1 ± 5.7
473.7 K | 134.2 ± 5.7
474.4 K | 134.1 ± 5.7
474.7 K | 134.3 ± 5.7
475.4 K | 134.1 ± 5.7
475.7 K | 134.4 ± 5.7
476.4 K | 134.2 ± 5.7
476.7 K | 134.4 ± 5.7
477.4 K | 134.2 ± 5.7
477.7 K | 134.4 ± 5.7
478.4 K | 134.4 ± 5.7
478.7 K | 134.5 ± 5.7
479.4 K | 134.5 ± 5.7
479.7 K | 134.6 ± 5.7
480 K | 134.6 ± 5.7
480.4 K | 134.6 ± 5.7
480.7 K | 134.7 ± 5.7
481.4 K | 134.7 ± 5.7
481.7 K | 134.7 ± 5.7
482.4 K | 134.8 ± 5.7
482.7 K | 134.7 ± 5.7
483.4 K | 134.9 ± 5.7
483.7 K | 134.8 ± 5.7
484.4 K | 135 ± 5.7
484.7 K | 134.9 ± 5.7
485.4 K | 135.1 ± 5.7
485.7 K | 135 ± 5.7
486.4 K | 135.2 ± 5.7
486.7 K | 135.1 ± 5.7
487.4 K | 135.2 ± 5.7
487.7 K | 135.1 ± 5.7
488.4 K | 135.3 ± 5.7
488.7 K | 135.2 ± 5.7
489.4 K | 135.4 ± 5.7
489.7 K | 135.2 ± 5.7
490 K | 135.3 ± 5.7
490.4 K | 135.4 ± 5.7
490.7 K | 135.3 ± 5.7
491.4 K | 135.5 ± 5.7
491.7 K | 135.4 ± 5.7
492.4 K | 135.5 ± 5.7
492.7 K | 135.6 ± 5.8
493.4 K | 135.5 ± 5.7
493.8 K | 135.7 ± 5.8
494.4 K | 135.5 ± 5.7
494.8 K | 135.7 ± 5.8
